Measurements from patent publication US20240207453A1, “13C METHACETIN GRANULE, AND PREPARATION METHOD THEREFOR AND USE THEREOF” (BEIJING RICHEN-FORCE SCIENCE & TECHNOLOGY CO., LTD, priority 2021, published 2024).

What was measured:
[1] = comparison of stability (appearance, impurities) during storage; format: physicochemical
Method: Experimental Groups 1 to 6: the 13C-methacetin granular formulations prepared in Examples 1 to 6 of the present disclosure
Control Group 1: a powdered formulation. The respective adjuvant materials and the raw drug were weighed at a prescribed ratio and mixed uniformly in a mixer for 3 hours, whereby a powdered formulation or a powder was prepared.
Control Group 2: another granular formulation.
13C-methacetin has a low solubility in water, has a slow dissolution rate, should be stirred for a long time when being dissolved in 100 ml of water in an amount of 50 mg, and thus is not convenient in oral administration. […] The powders are agglomerated during storage. The addition of the adjuvant materials helps to improve the stability of the product, and the degraded impurities are less than those of the raw drug powder. […] By comparison, the developed granular formulation has better stability and water solubility, is stable in quality, and has high value in use.

[2] = comparison of water solubility; format: physicochemical; settings: against the requirements of clinical use

- Stability: Appearance (agglomeration) [1]: likely to agglomerate
- water solubility (in words) [2]: low
SMILES: CC(=O)Nc1ccc(O[13CH3])cc1 [13C-methacetin, N-acetyl-p-anisidine (methoxy-13C)]
